Measured values published in BigSolDB 2.1.

Cc1ccc(S(C)(=O)=O)cc1
solubility (mole fraction)
Conditions	in DMF	in acetone	in acetonitrile	in ethanol	in ethyl acetate	in isopropanol	in methanol	in n-butanol	in n-propanol
278.15 K	0.123	0.0999	0.084	0.00721	0.0611	0.00415	0.0111	0.00408	0.00596
283.15 K	0.146	0.118	0.102	0.00993	0.0732	0.00579	0.0153	0.00599	0.00839
288.15 K	0.177	0.144	0.13	0.0137	0.0872	0.008	0.0207	0.00869	0.012
293.15 K	0.208	0.172	0.155	0.018	0.103	0.011	0.0282	0.0125	0.016
298.15 K	0.244	0.199	0.183	0.0241	0.123	0.0149	0.0376	0.0178	0.022
303.15 K	0.282	0.234	0.218	0.0321	0.144	0.0203	0.05	0.0252	0.03
308.15 K	0.332	0.274	0.258	0.042	0.171	0.0275	0.0657	0.0353	0.04
313.15 K	0.389	0.322	0.3	0.055	0.203	0.0367	0.0858	0.0492	0.052
318.15 K	0.45	0.379	0.359	0.0712	0.236	0.0491	0.111	0.0681	0.069
